This assay in a line: antiirritant effect against Balsam of Peru on ventral forearms of volunteers. The settings on record: 0.1% in hydroalcohol 1:1, applied twenty minutes before Balsam of Peru; Minolta Chromameter; seven volunteers. In kind it is in vivo, human. On the procedure:
Seven volunteers with a history of skin sensitivity to Balsam of Peru are chosen for the study.
The test compounds are applied to the ventral forearms of panelists. The material is allowed to absorb for twenty minutes and then Balsam of Peru, an irritant is applied on the test sites. Skin irritation is measured in terms of increase in skin redness. The degree of redness is measured with a Minolta Chromameter and compared with the controls, the positive control being skin treated with Balsam of Peru alone, and the negative control being a skin site treated with 10% cola solution(a known antiirritant), and challenged like the test products.

For the compound `COc1cc(/C=C/C(=O)O)ccc1O` [Ferulic acid, ferulic acid], the “effectiveness in preventing the onset of irritation (reduction of skin redness)” value is 72%.
